Inhibition data for one compound are collected here from ChEMBL document CHEMBL1127263, “Synthesis of B-NOR-4-AZA-5-androstane compound as 5-reductase inhibitor” (Bioorg Med Chem Lett, 1994).

This assay deals with Steroid 5-alpha-reductase (Rattus norvegicus) (UniProt P24008+P31214). Description: Inhibition of rat Steroid 5-alpha-reductase was determined at 10e-8 M concentration. In kind it is protein assay.
Chain of Steroid 5-alpha-reductase (Rattus norvegicus) (P24008 whole entry, looked up): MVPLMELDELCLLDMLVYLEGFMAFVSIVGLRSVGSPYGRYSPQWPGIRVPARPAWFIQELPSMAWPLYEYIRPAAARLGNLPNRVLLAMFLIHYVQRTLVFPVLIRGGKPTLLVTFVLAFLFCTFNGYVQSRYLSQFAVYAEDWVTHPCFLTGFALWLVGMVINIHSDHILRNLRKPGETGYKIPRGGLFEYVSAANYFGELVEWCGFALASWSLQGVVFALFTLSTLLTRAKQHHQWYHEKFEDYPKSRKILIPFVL
Chain of Steroid 5-alpha-reductase (Rattus norvegicus) (P31214 whole entry, looked up): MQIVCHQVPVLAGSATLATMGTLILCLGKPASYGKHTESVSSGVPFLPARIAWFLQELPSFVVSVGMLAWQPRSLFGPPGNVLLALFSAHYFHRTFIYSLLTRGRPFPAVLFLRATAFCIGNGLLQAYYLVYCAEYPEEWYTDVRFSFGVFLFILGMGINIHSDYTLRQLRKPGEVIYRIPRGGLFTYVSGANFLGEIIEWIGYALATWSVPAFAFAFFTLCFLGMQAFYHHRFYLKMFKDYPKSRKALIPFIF

Broadly, the inhibition is the share of the control response that was lost under treatment. Low values mean little suppression, high ones strong suppression. `CC12CCC3C(C[C@H]4NC(=O)CCC34C)C1CCC2C(=O)NC(c1ccccc1)c1ccccc1` (stereo partly specified) yielded an inhibition of 63%.
